What was measured:
MAPK1 (human) = MAPK1 (human) (UniProt P28482); assay: SelectScreen, TR FRET
MAPK10 (human) = MAPK10 (human) (UniProt P53779); assay: SelectScreen, TR FRET
PLK3 (human) = PLK3 (human) (UniProt Q9H4B4); assay: SelectScreen, TR FRET
CDK5 CDK5R1 p25 (human) = CDK5 CDK5R1 p25 (human) (UniProt Q15078+Q00535); assay: SelectScreen, TR FRET
PLK1 (human) = PLK1 (human) (UniProt P53350); assay: SelectScreen, TR FRET
PTK2B (human) = PTK2B (human) (UniProt Q14289); assay: SelectScreen, TR FRET
ROCK2 (human) = ROCK2 (human) (UniProt O75116); assay: SelectScreen, TR FRET
JAK1 JH1 JH2 (human) = JAK1 JH1 JH2 (human) (UniProt P23458); assay: SelectScreen, TR FRET
INSR (human) = INSR (human) (UniProt P06213); assay: SelectScreen, TR FRET
CDK2 CCNA2 (human) = CDK2 CCNA2 (human) (UniProt P24941+P20248); assay: SelectScreen, TR FRET
PRKCB1 (human) = PRKCB1 (human) (UniProt P05771); assay: SelectScreen, TR FRET
STK3 (human) = STK3 (human) (UniProt Q13188); assay: SelectScreen, TR FRET
CAMK2A (human) = CAMK2A (human) (UniProt Q9UQM7); assay: SelectScreen, TR FRET
AKT1 (human) = AKT1 (human) (UniProt P31749); assay: SelectScreen, TR FRET
RAF1 (human) = RAF1 (human) (UniProt P04049); assay: SelectScreen, TR FRET
Sequence of RAF1 (human) (P04049 whole entry, looked up): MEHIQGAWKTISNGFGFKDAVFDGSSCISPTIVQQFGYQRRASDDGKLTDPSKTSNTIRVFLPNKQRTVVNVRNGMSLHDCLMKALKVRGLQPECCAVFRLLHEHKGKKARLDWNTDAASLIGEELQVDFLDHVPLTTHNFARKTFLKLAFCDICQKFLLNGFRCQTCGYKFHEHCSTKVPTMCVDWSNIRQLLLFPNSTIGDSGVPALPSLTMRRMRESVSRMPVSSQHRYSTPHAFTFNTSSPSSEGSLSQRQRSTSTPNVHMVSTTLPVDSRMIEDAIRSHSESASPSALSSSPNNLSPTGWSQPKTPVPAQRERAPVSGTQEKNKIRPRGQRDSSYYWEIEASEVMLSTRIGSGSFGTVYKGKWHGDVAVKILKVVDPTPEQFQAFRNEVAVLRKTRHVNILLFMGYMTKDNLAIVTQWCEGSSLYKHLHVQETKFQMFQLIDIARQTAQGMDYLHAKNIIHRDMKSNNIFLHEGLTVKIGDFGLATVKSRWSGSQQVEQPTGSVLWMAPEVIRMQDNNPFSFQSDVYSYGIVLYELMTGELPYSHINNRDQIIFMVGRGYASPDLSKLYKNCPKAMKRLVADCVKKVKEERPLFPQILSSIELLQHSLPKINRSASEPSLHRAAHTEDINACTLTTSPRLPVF

ERBB4 (human) = ERBB4 (human) (UniProt Q15303); assay: SelectScreen, TR FRET
STK16 (human) = STK16 (human) (UniProt O75716); assay: SelectScreen, TR FRET
Sequence of STK16 (human) (O75716 whole entry, looked up): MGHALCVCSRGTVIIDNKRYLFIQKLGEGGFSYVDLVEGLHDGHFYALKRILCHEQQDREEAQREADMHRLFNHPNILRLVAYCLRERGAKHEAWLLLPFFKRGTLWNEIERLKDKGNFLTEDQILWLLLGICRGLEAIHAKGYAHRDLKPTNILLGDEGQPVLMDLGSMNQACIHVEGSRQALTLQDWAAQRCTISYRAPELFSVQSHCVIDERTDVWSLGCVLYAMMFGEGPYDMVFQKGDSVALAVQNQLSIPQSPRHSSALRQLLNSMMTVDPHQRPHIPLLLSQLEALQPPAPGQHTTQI

TTK (human) = TTK (human) (UniProt P33981); assay: SelectScreen, TR FRET
Sequence of TTK (human) (P33981 whole entry, looked up): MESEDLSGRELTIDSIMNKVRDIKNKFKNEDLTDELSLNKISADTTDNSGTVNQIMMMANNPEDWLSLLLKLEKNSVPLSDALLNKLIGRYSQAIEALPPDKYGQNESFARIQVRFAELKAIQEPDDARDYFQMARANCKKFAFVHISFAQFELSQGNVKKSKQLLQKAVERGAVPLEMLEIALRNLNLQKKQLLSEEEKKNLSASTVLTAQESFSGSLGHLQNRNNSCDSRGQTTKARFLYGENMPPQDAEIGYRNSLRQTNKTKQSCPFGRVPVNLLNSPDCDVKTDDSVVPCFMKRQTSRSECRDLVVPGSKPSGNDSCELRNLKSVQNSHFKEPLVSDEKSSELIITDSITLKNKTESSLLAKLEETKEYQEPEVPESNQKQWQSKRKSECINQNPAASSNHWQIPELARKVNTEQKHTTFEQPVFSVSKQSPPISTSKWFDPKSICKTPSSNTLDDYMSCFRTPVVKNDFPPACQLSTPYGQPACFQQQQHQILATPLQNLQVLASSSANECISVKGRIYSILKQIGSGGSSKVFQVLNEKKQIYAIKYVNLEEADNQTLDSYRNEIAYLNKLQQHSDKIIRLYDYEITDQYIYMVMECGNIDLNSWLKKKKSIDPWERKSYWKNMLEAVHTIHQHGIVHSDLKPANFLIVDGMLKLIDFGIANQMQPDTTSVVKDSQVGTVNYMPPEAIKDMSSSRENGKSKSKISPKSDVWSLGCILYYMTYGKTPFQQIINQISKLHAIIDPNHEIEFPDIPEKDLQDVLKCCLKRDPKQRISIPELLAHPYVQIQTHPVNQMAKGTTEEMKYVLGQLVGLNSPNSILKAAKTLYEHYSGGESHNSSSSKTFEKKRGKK

LRRK2 (human) [1] = target: LRRK2 (human) (UniProt Q5S007); assay: HTRF; settings: ATP 100 µM
Sequence of LRRK2 (human) (Q5S007 whole entry, looked up): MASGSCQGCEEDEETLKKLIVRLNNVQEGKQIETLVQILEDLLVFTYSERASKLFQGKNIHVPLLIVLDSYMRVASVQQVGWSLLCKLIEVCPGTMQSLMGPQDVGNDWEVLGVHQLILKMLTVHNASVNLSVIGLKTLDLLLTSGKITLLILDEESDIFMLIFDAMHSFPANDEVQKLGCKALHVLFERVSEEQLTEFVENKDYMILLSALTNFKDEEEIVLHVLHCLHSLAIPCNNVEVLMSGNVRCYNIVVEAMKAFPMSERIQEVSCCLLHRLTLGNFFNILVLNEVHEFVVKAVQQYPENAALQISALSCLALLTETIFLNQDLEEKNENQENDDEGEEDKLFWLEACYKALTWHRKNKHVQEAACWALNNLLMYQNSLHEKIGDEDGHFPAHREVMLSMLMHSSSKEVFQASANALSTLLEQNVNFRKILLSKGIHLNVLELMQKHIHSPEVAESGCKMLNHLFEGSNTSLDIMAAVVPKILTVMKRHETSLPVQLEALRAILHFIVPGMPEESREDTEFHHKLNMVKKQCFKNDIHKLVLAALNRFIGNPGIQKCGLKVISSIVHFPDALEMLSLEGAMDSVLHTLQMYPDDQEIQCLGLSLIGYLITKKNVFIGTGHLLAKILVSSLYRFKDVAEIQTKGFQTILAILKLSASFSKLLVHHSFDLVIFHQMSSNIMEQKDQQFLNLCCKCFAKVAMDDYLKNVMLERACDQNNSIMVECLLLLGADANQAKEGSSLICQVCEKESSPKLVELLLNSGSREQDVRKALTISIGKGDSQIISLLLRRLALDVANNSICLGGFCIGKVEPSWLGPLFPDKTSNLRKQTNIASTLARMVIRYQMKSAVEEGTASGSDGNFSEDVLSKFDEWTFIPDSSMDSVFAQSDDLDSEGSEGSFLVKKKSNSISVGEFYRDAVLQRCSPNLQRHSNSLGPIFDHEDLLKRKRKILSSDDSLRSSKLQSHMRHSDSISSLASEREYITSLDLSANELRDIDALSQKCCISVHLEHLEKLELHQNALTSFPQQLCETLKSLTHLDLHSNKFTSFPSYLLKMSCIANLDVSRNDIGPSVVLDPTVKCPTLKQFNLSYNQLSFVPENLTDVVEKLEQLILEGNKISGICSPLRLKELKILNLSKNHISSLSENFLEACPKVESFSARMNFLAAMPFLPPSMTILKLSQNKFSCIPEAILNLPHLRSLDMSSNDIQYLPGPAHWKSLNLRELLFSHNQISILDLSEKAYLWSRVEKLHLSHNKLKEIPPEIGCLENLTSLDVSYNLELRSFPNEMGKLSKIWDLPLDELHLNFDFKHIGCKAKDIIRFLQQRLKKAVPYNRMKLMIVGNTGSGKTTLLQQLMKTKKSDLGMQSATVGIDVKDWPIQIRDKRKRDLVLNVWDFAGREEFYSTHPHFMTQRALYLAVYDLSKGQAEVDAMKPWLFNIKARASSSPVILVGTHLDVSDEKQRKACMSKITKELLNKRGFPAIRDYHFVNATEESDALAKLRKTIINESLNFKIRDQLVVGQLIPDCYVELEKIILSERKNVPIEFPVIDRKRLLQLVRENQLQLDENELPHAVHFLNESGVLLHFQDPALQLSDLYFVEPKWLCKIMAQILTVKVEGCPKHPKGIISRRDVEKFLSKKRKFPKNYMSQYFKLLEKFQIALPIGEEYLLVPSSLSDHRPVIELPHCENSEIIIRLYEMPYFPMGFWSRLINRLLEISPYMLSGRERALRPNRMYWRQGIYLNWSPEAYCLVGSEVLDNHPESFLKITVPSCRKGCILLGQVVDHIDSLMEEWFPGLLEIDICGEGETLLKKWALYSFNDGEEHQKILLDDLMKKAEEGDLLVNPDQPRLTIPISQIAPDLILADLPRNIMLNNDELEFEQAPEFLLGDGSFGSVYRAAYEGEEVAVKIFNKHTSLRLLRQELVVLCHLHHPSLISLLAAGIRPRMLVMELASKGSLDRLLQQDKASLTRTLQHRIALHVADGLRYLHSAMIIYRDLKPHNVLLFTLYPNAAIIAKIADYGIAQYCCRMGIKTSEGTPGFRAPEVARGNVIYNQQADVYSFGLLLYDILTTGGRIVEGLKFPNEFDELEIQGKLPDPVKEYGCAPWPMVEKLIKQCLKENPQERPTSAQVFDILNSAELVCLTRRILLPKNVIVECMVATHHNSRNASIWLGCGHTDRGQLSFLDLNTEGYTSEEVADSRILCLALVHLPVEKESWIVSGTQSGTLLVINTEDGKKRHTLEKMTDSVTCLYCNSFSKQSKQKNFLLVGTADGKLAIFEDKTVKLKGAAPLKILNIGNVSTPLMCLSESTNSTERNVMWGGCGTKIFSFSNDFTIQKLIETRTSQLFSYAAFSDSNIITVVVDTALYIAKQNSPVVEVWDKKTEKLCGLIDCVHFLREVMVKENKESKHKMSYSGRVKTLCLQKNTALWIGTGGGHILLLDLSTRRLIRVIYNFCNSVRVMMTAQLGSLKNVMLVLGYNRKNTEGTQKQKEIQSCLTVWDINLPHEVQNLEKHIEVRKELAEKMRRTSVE

[2] = target: LRRK2 (human), Q5S007 [G2019S]; assay: HTRF; settings: ATP 100 µM
Sequence of LRRK2 (human), Q5S007 [G2019S] (Q5S007 whole entry G2019S, looked up): as the sequence (Q5S007 whole entry, looked up) above, with G2019S counted along it

CHEK1 (human) = CHEK1 (human) (UniProt O14757); assay: SelectScreen, TR FRET; settings: compound 10.0 µM
ABL1 (human) = ABL1 (human) (UniProt P00519); assay: SelectScreen, TR FRET; settings: compound 10.0 µM
PRKACA (human) = PRKACA (human) (UniProt P17612); assay: SelectScreen, TR FRET; settings: compound 10.0 µM
GSK3B (human) = GSK3B (human) (UniProt P49841); assay: SelectScreen, TR FRET
IRAK4 (human) = IRAK4 (human) (UniProt Q9NWZ3); assay: SelectScreen, TR FRET
AURKA (human) = AURKA (human) (UniProt O14965); assay: SelectScreen, TR FRET; settings: compound 10.0 µM
SYK (human) = SYK (human) (UniProt P43405); assay: SelectScreen, TR FRET; settings: compound 10.0 µM
RET (human) = RET (human) (UniProt P07949); assay: SelectScreen, TR FRET; settings: compound 10.0 µM
FLT3 (human) = FLT3 (human) (UniProt P36888); assay: SelectScreen, TR FRET
LCK (human) = LCK (human) (UniProt P06239); assay: SelectScreen, TR FRET
RIPK2 (human) = RIPK2 (human) (UniProt O43353); assay: SelectScreen, TR FRET; settings: compound 10.0 µM
LRRK2 (human) [3] = target: LRRK2 (human) (UniProt Q5S007); assay: SelectScreen, TR FRET; settings: compound 10.0 µM
PIK3CA PIK3R1 (human) = PIK3CA PIK3R1 (human) (UniProt P27986+P42336); assay: SelectScreen, TR FRET
CLK1 (human) = CLK1 (human) (UniProt P49759); assay: SelectScreen, TR FRET; settings: compound 10.0 µM
MARK2 (human) = MARK2 (human) (UniProt Q7KZI7); assay: SelectScreen, TR FRET; settings: compound 10.0 µM
PLK2 (human) = PLK2 (human) (UniProt Q9NYY3); assay: SelectScreen, TR FRET; settings: compound 10.0 µM
CDK1 CCNB1 (human) = CDK1 CCNB1 (human) (UniProt P06493+P14635); assay: SelectScreen, TR FRET; settings: compound 10.0 µM
CSF1R (human) = CSF1R (human) (UniProt P07333); assay: SelectScreen, TR FRET; settings: compound 10.0 µM
MAP3K7 TAB1 (human) = MAP3K7 TAB1 (human) (UniProt Q15750+O43318); assay: SelectScreen, TR FRET
PAK4 (human) = PAK4 (human) (UniProt O96013); assay: SelectScreen, TR FRET; settings: compound 10.0 µM
PDGFRA (human) = PDGFRA (human) (UniProt P16234); assay: SelectScreen, TR FRET
DYRK1B (human) = DYRK1B (human) (UniProt Q9Y463); assay: SelectScreen, TR FRET; settings: compound 10.0 µM

Sequence of PLK3 (human) (Q9H4B4 whole entry, looked up): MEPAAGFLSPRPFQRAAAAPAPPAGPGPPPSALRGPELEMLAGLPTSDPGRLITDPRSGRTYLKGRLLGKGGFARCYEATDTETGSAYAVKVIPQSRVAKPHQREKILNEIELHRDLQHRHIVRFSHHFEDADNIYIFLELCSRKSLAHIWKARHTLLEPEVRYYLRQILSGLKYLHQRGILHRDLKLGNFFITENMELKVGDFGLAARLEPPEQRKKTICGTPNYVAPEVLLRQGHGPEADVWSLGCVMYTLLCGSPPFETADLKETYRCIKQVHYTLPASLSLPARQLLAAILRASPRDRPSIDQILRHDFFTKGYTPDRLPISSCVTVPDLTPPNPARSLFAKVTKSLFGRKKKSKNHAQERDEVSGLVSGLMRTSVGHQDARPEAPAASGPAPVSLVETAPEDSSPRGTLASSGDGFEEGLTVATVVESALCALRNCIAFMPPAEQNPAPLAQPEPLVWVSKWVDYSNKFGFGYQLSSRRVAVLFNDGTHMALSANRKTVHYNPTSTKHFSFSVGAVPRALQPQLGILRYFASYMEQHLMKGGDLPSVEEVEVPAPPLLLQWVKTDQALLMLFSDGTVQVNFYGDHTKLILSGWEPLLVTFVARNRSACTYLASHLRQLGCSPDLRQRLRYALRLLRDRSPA

## CC(C)Nc1c(C#N)cnc2cc(-c3cnn(C)c3)ccc12
MAPK1 (human); compound 1.0 µM
  inhibition: -2.05%
MAPK10 (human); compound 1.0 µM
  inhibition: 4.47%
PLK3 (human); compound 1.0 µM
  inhibition: 11.5%
CDK5 CDK5R1 p25 (human); compound 1.0 µM
  inhibition: 12.4%
PLK1 (human); compound 1.0 µM
  inhibition: 23.6%
PTK2B (human); compound 1.0 µM
  inhibition: 12.2%
ROCK2 (human); compound 1.0 µM
  inhibition: 14.2%
JAK1 JH1 JH2 (human); compound 1.0 µM
  inhibition: 2.9%
INSR (human); compound 1.0 µM
  inhibition: 1.29%
CDK2 CCNA2 (human); compound 1.0 µM
  inhibition: 5.33%
PRKCB1 (human); compound 1.0 µM
  inhibition: -7.3%
STK3 (human); compound 1.0 µM
  inhibition: 15.4%
CAMK2A (human); compound 1.0 µM
  inhibition: 27.5%
AKT1 (human); compound 1.0 µM
  inhibition: -0.488%
RAF1 (human); compound 1.0 µM
  inhibition: 12.4%
ERBB4 (human); compound 1.0 µM
  inhibition: 4.52%
STK16 (human); compound 1.0 µM
  inhibition: 10.1%
TTK (human); compound 1.0 µM
  inhibition: -8.51%
LRRK2 (human) [1]
  IC50: 70 nM
[2]
  IC50: 50 nM

## C[C@@H](Nc1c(C#N)cnc2cc(-c3ccc(N4CCOC4=O)cc3)ccc12)C1CC1
CHEK1 (human)
  inhibition: 30.7%
ABL1 (human)
  inhibition: 29.9%
MAPK1 (human); compound 10.0 µM
  inhibition: -1.85%
PRKACA (human)
  inhibition: -2.65%
GSK3B (human); compound 10.0 µM
  inhibition: 0.682%
IRAK4 (human); compound 10.0 µM
  inhibition: 9.89%
AURKA (human)
  inhibition: 66.7%
SYK (human)
  inhibition: 71%
RET (human)
  inhibition: 11.8%
MAPK10 (human); compound 10.0 µM
  inhibition: -17.1%
FLT3 (human); compound 10.0 µM
  inhibition: 44.5%
LCK (human); compound 10.0 µM
  inhibition: 18.4%
PLK3 (human); compound 10.0 µM
  inhibition: 5.89%
CDK5 CDK5R1 p25 (human); compound 10.0 µM
  inhibition: 5.49%
PLK1 (human); compound 10.0 µM
  inhibition: 8.21%
RIPK2 (human)
  inhibition: 55.8%
PTK2B (human); compound 10.0 µM
  inhibition: 15.9%
LRRK2 (human) [3]
  inhibition: 81.3%
PIK3CA PIK3R1 (human); compound 10.0 µM
  inhibition: 13.5%
CLK1 (human)
  inhibition: 6.88%
MARK2 (human)
  inhibition: 40.2%
PLK2 (human)
  inhibition: 53.7%
ROCK2 (human); compound 10.0 µM
  inhibition: 16.4%
JAK1 JH1 JH2 (human); compound 10.0 µM
  inhibition: 4.09%
INSR (human); compound 10.0 µM
  inhibition: 0.146%
CDK2 CCNA2 (human); compound 10.0 µM
  inhibition: 0.295%
PRKCB1 (human); compound 10.0 µM
  inhibition: -1.79%
STK3 (human); compound 10.0 µM
  inhibition: 18.1%
CAMK2A (human); compound 10.0 µM
  inhibition: 29.7%
CDK1 CCNB1 (human)
  inhibition: 11.7%
AKT1 (human); compound 10.0 µM
  inhibition: -1.71%
CSF1R (human)
  inhibition: 39.5%
MAP3K7 TAB1 (human); compound 10.0 µM
  inhibition: -5.32%
RAF1 (human); compound 10.0 µM
  inhibition: 5.94%
ERBB4 (human); compound 10.0 µM
  inhibition: 6.95%
STK16 (human); compound 10.0 µM
  inhibition: -24.1%
PAK4 (human)
  inhibition: 19.3%
TTK (human); compound 10.0 µM
  inhibition: 11.2%
PDGFRA (human); compound 10.0 µM
  inhibition: 4.67%
DYRK1B (human)
  inhibition: 23.7%
LRRK2 (human) [1]
  IC50: 48 nM
[2]
  IC50: 27 nM

## CC(C)Nc1c(C#N)cnc2cc(-c3ccc(S(C)(=O)=O)cc3)ccc12
MAPK1 (human); compound 1.0 µM
  inhibition: 9.79%
GSK3B (human); compound 1.0 µM
  inhibition: 27.6%
IRAK4 (human); compound 1.0 µM
  inhibition: 29.4%
MAPK10 (human); compound 1.0 µM
  inhibition: -11.1%
FLT3 (human); compound 1.0 µM
  inhibition: 15.5%
LCK (human); compound 1.0 µM
  inhibition: 25.5%
PLK3 (human); compound 1.0 µM
  inhibition: 13.5%
PTK2B (human); compound 1.0 µM
  inhibition: 33.5%
PIK3CA PIK3R1 (human); compound 1.0 µM
  inhibition: -1.66%
ROCK2 (human); compound 1.0 µM
  inhibition: 11.8%
JAK1 JH1 JH2 (human); compound 1.0 µM
  inhibition: 16.5%
CDK2 CCNA2 (human); compound 1.0 µM
  inhibition: 11.7%
PRKCB1 (human); compound 1.0 µM
  inhibition: 19.4%
AKT1 (human); compound 1.0 µM
  inhibition: 9.66%
MAP3K7 TAB1 (human); compound 1.0 µM
  inhibition: 7.1%
RAF1 (human); compound 1.0 µM
  inhibition: 3.26%
STK16 (human); compound 1.0 µM
  inhibition: 3.38%
TTK (human); compound 1.0 µM
  inhibition: -3.76%
PDGFRA (human); compound 1.0 µM
  inhibition: 33.4%

From the kinase profiling compilation of Christmann-Franck et al. (2016)
